Test systems include OVCAR-8; SK-MEL-28; HCT-116; SF-295; NCI/ADR-RES; CCRF-CEM; SR; A549; EKVX; LOX IMVI; OVCAR-4; Malme-3M; MDA-MB-231; COLO 205; 786-0; UACC-257; BT-549; KM12; A498; MDA-N.
What all share (experiment): NCI tumour cell line growth inhibition, 48 h

The source of these data is ChEMBL document CHEMBL1201862, “PubChem BioAssay data set” (2004).

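Protocol summary: plate cells (96-well), add compound at 5 concentrations, incubate 48 h, interpolate endpoints linearly. Abbreviation: GI50, concentration required for 50% inhibition of growth.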 Calls of active or inactive are those of the source. Cut-off read from the data, not from the text of the source: active = GI50 up to about 1.1 µM and inactive = higher. Some results are limits rather than exact numbers.

`CCCC1=NC(C(F)(F)F)(C(F)(F)F)N=C(N2CCOCC2)O1`: the GI50 with OVCAR-8, with SK-MEL-28, in the assay on HCT-116, in the assay on SF-295, with NCI/ADR-RES and with CCRF-CEM was > 100 µM (inactive) each time. In addition, the GI50 in the assay with SR was > 100 µM (inactive); in the assay with A549, > 100 µM (inactive); in the assay on EKVX, > 100 µM (inactive); with LOX IMVI, > 100 µM (inactive); in the assay with OVCAR-4, 80.2 µM (inactive); in the assay with Malme-3M, > 100 µM (inactive). Also, the GI50 in the assay with MDA-MB-231, in the assay on COLO 205, in the assay on 786-0, with UACC-257, with BT-549 and in the assay with KM12 was > 100 µM (inactive) throughout.
Take `CN(C)c1nc(N)nc(CS)n1`: the GI50 with OVCAR-8 was > 100 µM (inactive); with A498 it was > 100 µM (inactive); in the assay on SK-MEL-28, > 100 µM (inactive); in the assay on HCT-116, > 100 µM (inactive); in the assay with SF-295, 52.4 µM (inactive); in the assay on NCI/ADR-RES, > 100 µM (inactive). The GI50 was 25.5 µM (inactive) in the assay with CCRF-CEM; 37.2 µM (inactive) in the assay with SR; 51.3 µM (inactive) in the assay on A549; > 100 µM (inactive) with EKVX; 42.3 µM (inactive) in the assay with LOX IMVI; 80.7 µM (inactive) in the assay with OVCAR-4. Also, the GI50 with MDA-MB-231 was 45.6 µM (inactive); in the assay on COLO 205, > 100 µM (inactive); in the assay on 786-0, > 100 µM (inactive); in the assay on UACC-257, > 100 µM (inactive); in the assay on BT-549 it was > 100 µM (inactive); in the assay on KM12, > 100 µM (inactive).
With `O=C(CSCC(=O)N/N=C\c1cccc([N+](=O)[O-])c1)N/N=C\c1cccc([N+](=O)[O-])c1`, the GI50 was 31.3 µM (inactive) in the assay on OVCAR-8; 41.1 µM (inactive) with A498; > 100 µM (inactive) in the assay with SK-MEL-28; 27.7 µM (inactive) in the assay with HCT-116; 11.5 µM (inactive) in the assay with SF-295; 19.2 µM (inactive) in the assay on NCI/ADR-RES. The GI50 in the assay on CCRF-CEM was > 100 µM (inactive); in the assay with SR it was 69 µM (inactive); with A549, 66.5 µM (inactive); with EKVX, 53.6 µM (inactive); in the assay with LOX IMVI, 53.1 µM (inactive); with OVCAR-4, > 100 µM (inactive). Also, the GI50 with Malme-3M was 21 µM (inactive); with MDA-MB-231, 18.9 µM (inactive); in the assay with COLO 205 it was > 100 µM (inactive); with 786-0, 18.2 µM (inactive); with UACC-257, > 100 µM (inactive); in the assay with KM12 it was > 100 µM (inactive).
On to `CCOC(=N)CC(=O)Nc1ccc(Cl)cc1`, for which the GI50 with OVCAR-8, in the assay with A498, in the assay with SK-MEL-28, in the assay with HCT-116, in the assay with SF-295 and in the assay on CCRF-CEM was > 100 µM (inactive) throughout. Moreover, the GI50 with SR, with A549, in the assay on EKVX, in the assay with LOX IMVI, in the assay with OVCAR-4 and in the assay with Malme-3M was > 100 µM (inactive) each time. Also, the GI50 with COLO 205, with 786-0, in the assay on UACC-257 and in the assay on KM12 was > 100 µM (inactive) in each case.
As for `CSC1=C(C(=O)N(COCC[Si](C)(C)C)c2ccccc2Br)CCC(C(C)(C)C)C1` (stereo not given), the GI50 in the assay with OVCAR-8 is 17.8 µM (inactive); with A498 it was 28.1 µM (inactive); in the assay with SK-MEL-28 it was 25.8 µM (inactive); with HCT-116, 5.32 µM (inactive); in the assay with SF-295 it was 9.64 µM (inactive); in the assay with NCI/ADR-RES it was 13.7 µM (inactive). Also, the GI50 in the assay on CCRF-CEM was 22.7 µM (inactive); with SR, 3.42 µM (inactive); in the assay with A549 it was 17 µM (inactive); in the assay with EKVX it was 13.8 µM (inactive); in the assay with LOX IMVI it was 15.7 µM (inactive); in the assay on OVCAR-4, 10.5 µM (inactive). The GI50 was 16.6 µM (inactive) in the assay with Malme-3M; 10.3 µM (inactive) in the assay on MDA-MB-231; 12.4 µM (inactive) with COLO 205; 13.3 µM (inactive) with 786-0; 9.77 µM (inactive) with UACC-257; 28.1 µM (inactive) in the assay with BT-549. The GI50 in the assay on KM12 was 14.2 µM (inactive).
Regarding `CC(=O)Nc1ccc(/C=c2\sc3nnc(-c4cccnc4)n3c2=O)cc1`, the GI50 is 17.6 µM (inactive) in the assay on OVCAR-8; 75.2 µM (inactive) in the assay on A498; 17 µM (inactive) in the assay on SK-MEL-28; 15.6 µM (inactive) with HCT-116; 36.4 µM (inactive) in the assay with SF-295; 17.4 µM (inactive) in the assay with CCRF-CEM. Further, the GI50 in the assay with SR was 17.3 µM (inactive); in the assay with A549, 42.1 µM (inactive); in the assay on EKVX it was 18.9 µM (inactive); in the assay with LOX IMVI, 16.5 µM (inactive); in the assay on OVCAR-4, 14.6 µM (inactive); with Malme-3M, 19.1 µM (inactive). Moreover, the GI50 was 15.4 µM (inactive) with COLO 205, 16.6 µM (inactive) in the assay on 786-0, 21.8 µM (inactive) with UACC-257 and 16.8 µM (inactive) in the assay on KM12.
On to `CCOC(=O)/C1=C(\C)N(c2ccc(C)cc2)C(=O)c2ccccc2C(=O)c2c(OC(C)=O)ccc(OC(C)=O)c21`, for which the GI50 in the assay on OVCAR-8 is 36.8 µM (inactive); with A498, 67.1 µM (inactive); in the assay on SK-MEL-28 it was < 0.01 µM (active); in the assay with HCT-116, 15.3 µM (inactive); with SF-295 it was 14.5 µM (inactive); in the assay with NCI/ADR-RES it was 19.2 µM (inactive). The GI50 with CCRF-CEM was 10.8 µM (inactive); in the assay on SR, 15.8 µM (inactive); in the assay on A549 it was 26.8 µM (inactive); in the assay with LOX IMVI, 14.4 µM (inactive); in the assay on OVCAR-4, 12.8 µM (inactive); in the assay with Malme-3M it was 28.1 µM (inactive). Further, the GI50 in the assay on MDA-MB-231 is 12.9 µM (inactive); in the assay on COLO 205, 13.5 µM (inactive); with 786-0 it was 34.8 µM (inactive); with UACC-257, 21.8 µM (inactive); in the assay on BT-549, 25.3 µM (inactive); with KM12, 15 µM (inactive).
Turning to `COc1cc(C2NCCC(c3ccccc3)(c3ccccc3)N2)cc(OC)c1OC` (stereo not given), the GI50 in the assay with OVCAR-8 was 60.4 µM (inactive); with A498, 18.7 µM (inactive); in the assay with SK-MEL-28, 17 µM (inactive); in the assay on HCT-116, 4.43 µM (inactive); with SF-295, 7.1 µM (inactive); in the assay with NCI/ADR-RES it was > 100 µM (inactive). For the same molecule, the GI50 in the assay with CCRF-CEM is 39.3 µM (inactive); in the assay on SR, 26.4 µM (inactive); in the assay with A549, 32.4 µM (inactive); in the assay with EKVX, > 100 µM (inactive); in the assay with LOX IMVI, 13.5 µM (inactive); in the assay on OVCAR-4 it was 81.1 µM (inactive). The GI50 with Malme-3M was 19.1 µM (inactive); in the assay on MDA-MB-231, 68.9 µM (inactive); with COLO 205 it was 16.1 µM (inactive); with 786-0 it was 22.6 µM (inactive); in the assay on UACC-257 it was 18.2 µM (inactive); with KM12, 12.6 µM (inactive).
On to `Cc1cc2nc3c(C#N)c4c(c(Cl)n3c2cc1C)CCC4`, for which the GI50 in the assay with OVCAR-8 was 20.2 µM (inactive); in the assay on A498 it was > 100 µM (inactive); in the assay on SK-MEL-28, 29.2 µM (inactive); with HCT-116 it was 16.1 µM (inactive); in the assay with SF-295 it was > 100 µM (inactive); in the assay with NCI/ADR-RES it was 18.3 µM (inactive). Also, the GI50 was 61.1 µM (inactive) in the assay on EKVX; 18.1 µM (inactive) in the assay on LOX IMVI; 43 µM (inactive) with OVCAR-4; 52.8 µM (inactive) with Malme-3M; 15.9 µM (inactive) in the assay with MDA-MB-231; 65.8 µM (inactive) in the assay with COLO 205. In addition, the GI50 in the assay with 786-0 is 16 µM (inactive); in the assay on UACC-257 it was 36.7 µM (inactive); with BT-549 it was 22.5 µM (inactive); in the assay on KM12 it was 38.5 µM (inactive).
`COc1ccc(C2=Nc3ccccc3NC(=O)C2)cc1`: the GI50 in the assay with OVCAR-8 is 40.5 µM (inactive); with A498, 45.2 µM (inactive); in the assay on SK-MEL-28, > 100 µM (inactive); with HCT-116 it was 20.5 µM (inactive); in the assay on SF-295, 23.1 µM (inactive); in the assay with CCRF-CEM it was 41.9 µM (inactive). For the same molecule, the GI50 was > 100 µM (inactive) in the assay with SR; 77.6 µM (inactive) in the assay on A549; > 100 µM (inactive) with EKVX; 18.3 µM (inactive) in the assay with LOX IMVI; > 100 µM (inactive) in the assay with OVCAR-4; 92 µM (inactive) in the assay with Malme-3M. Also, the GI50 in the assay with COLO 205 is 38.3 µM (inactive); with 786-0 it was 33.3 µM (inactive); in the assay on UACC-257 it was > 100 µM (inactive); with KM12, > 100 µM (inactive).
`C=C(CN(C)C)C1(c2ccccc2)CC2(CCCC2)C(=O)O1` (stereo not given): the GI50 was > 100 µM (inactive) with OVCAR-8; > 100 µM (inactive) with A498; > 100 µM (inactive) in the assay on SK-MEL-28; 70.3 µM (inactive) in the assay with HCT-116; > 100 µM (inactive) in the assay on SF-295; 20.6 µM (inactive) in the assay with CCRF-CEM. Moreover, the GI50 in the assay with A549 was > 100 µM (inactive); in the assay with EKVX, > 100 µM (inactive); with LOX IMVI it was 53 µM (inactive); in the assay on OVCAR-4 it was > 100 µM (inactive); in the assay with Malme-3M it was 14.7 µM (inactive); in the assay with MDA-MB-231 it was 64.4 µM (inactive). Moreover, the GI50 in the assay with COLO 205 is 28.2 µM (inactive); with 786-0, 66.5 µM (inactive); with UACC-257, 49.2 µM (inactive); in the assay on MDA-N, 44.8 µM (inactive); in the assay with KM12 it was > 100 µM (inactive).
